Values of other authors, collected in US20030224036A1, “Hla class I a2 tumor associated antigen peptides and vaccine compositions” (priority 1999, published 2003).

System: PBMC of cervical cancer patients

Substance: aKXVAAWTLKAAa-NH2 [PADRE, a=D-alanine, X=cyclohexylalanine]
- responding patients (95% interval 10-65%): 33%
- safety in patients (recurrent or residual cervical carcinoma): favorable safety profile
